{"source": "paper PMC4906958", "about": "(Journal of the American Chemical Society, 2016)", "key": {"MelB of E. coli (MelBEc) [1]": {"target": "T1, MelB of E. coli (MelBEc) (Escherichia coli, UniProt P02921)", "T1 sequence (P02921 2-473)": "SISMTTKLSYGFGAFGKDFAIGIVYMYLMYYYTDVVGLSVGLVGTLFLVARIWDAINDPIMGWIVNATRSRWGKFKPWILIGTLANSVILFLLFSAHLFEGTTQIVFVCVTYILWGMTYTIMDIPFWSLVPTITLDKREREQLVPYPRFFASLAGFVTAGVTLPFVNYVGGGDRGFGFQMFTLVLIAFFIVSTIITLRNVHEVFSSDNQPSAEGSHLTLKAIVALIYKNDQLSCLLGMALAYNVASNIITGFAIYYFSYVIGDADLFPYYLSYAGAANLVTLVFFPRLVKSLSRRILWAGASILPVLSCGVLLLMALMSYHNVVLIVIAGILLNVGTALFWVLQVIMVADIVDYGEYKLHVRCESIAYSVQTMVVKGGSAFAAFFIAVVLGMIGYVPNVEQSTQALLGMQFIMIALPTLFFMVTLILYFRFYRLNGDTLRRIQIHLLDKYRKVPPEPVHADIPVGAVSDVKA", "test": "Trp to D2G FRET, reversed by melibiose, in detergent extract", "type": "cell-based"}, "[2]": {"target": "LeuT (leucine transporter) (Aquifex aeolicus, UniProt O67854)", "test": "radioligand binding by scintillation proximity assay"}, "MelB of E. coli (MelBEc) [3]": {"target": "T1, MelB of E. coli (MelBEc)", "test": "melibiose reversal of Trp to D2G FRET in detergent extract", "type": "cell-based"}}}
{"compound": "CN(C)c1cccc2c(S(=O)(=O)NCCS[C@@H]3O[C@H](CO)[C@H](O)[C@H](O)[C@H]3O)cccc12", "note": "[D2G, dansyl-2-galactoside]", "values": [{"measurement": "Trp to D2G FRET, reversed by melibiose, in detergent extract", "setting": "MelB of E. coli (MelBEc) [1]", "value": "Melibiose reversal of Trp to dansyl-2-galactoside (D^2G) FRET."}]}
{"compound": "CC(C)C[C@H](N)C(=O)O", "note": "[leucine]", "values": [{"measurement": "radioligand binding by scintillation proximity assay (SPA)", "setting": "[2]", "value": "measuring the ability to bind a radio-labelled ligand ([^3H]-leucine) via scintillation proximity assay (SPA)"}]}
{"compound": "OC[C@H]1O[C@H](OC[C@H]2OC(O)[C@H](O)[C@@H](O)[C@@H]2O)[C@H](O)[C@@H](O)[C@H]1O", "note": "(stereo partly drawn) [melibiose]", "values": [{"measurement": "melibiose reversal of Trp to D2G FRET in detergent extract", "setting": "MelB of E. coli (MelBEc) [3]", "value": "MelBEc in PSE-C11 maintained the melibiose binding, which is similar to that observed for the protein in MNG-3"}]}
